ChEMBL document CHEMBL3045401, “(Naphthalen-1-yloxy)-acetic acid benzylidene/(1-phenyl-ethylidene)-hydrazide derivatives: synthesis, antimicrobial evaluation, and QSAR studies” (Med Chem Res, 2012)
Converted amounts (≈) assume the structure as drawn.

What was measured:
[1] = system: Aspergillus niger; test: Antimicrobial activity against Aspergillus niger after 7 days by serial dilution method; format: functional
[2] = system: Staphylococcus aureus; test: Antimicrobial activity against Staphylococcus aureus after 24 hr by serial dilution method; format: functional
[3] = system: Bacillus subtilis; test: Antimicrobial activity against Bacillus subtilis after 24 hr by serial dilution method; format: functional
[4] = system: Human alphaherpesvirus 3; test: Antiviral activity against thymidine kinase-deficient Human herpesvirus 3 infected in HEL cells assessed as inhibition of viral plaque formation; format: functional, organism-based; conditions: Human alphaherpesvirus 3, HEL
[5] = system: Human immunodeficiency virus 1; test: Antiviral activity against Human immunodeficiency virus 1 IIIB infected human MT4 cells assessed as inhibition of virus-induced cytopathic effect after 4 days by MTT assay; format: functional, organism-based; conditions: MT4, 96 h
[6] = Octanol-water partition coefficient, log P of the compound; format: physicochemical
[7] = Cytotoxicity against HEL; format: cell-based; conditions: human, HEL cells
[8] = system: Escherichia coli; test: Antimicrobial activity against Escherichia coli after 24 hr by serial dilution method; format: functional
[9] = system: Human alphaherpesvirus 3; test: Antiviral activity against thymidine kinase-positive Human herpesvirus 3 infected in HEL cells assessed as inhibition of viral plaque formation; format: functional, organism-based; conditions: Human alphaherpesvirus 3, HEL
[10] = system: Candida albicans; test: Antimicrobial activity against Candida albicans after 2 days by serial dilution method; format: functional
[11] = system: Human betaherpesvirus 5; test: Antiviral activity against Human herpesvirus 5 strain AD169 infected human HEL cells assessed as reduction in the virus plaque formation; format: functional, organism-based; conditions: Human betaherpesvirus 5, AD169, HEL
[12] = Cytotoxicity against HEL assessed as minimum concentration required to cause morphological changes; format: cell-based; conditions: human, HEL cells
[13] = system: Human betaherpesvirus 5; test: Antiviral activity against Human herpesvirus 5 Davis infected human HEL cells assessed as reduction in the virus plaque formation; format: functional, organism-based; conditions: Human betaherpesvirus 5, Davis
[14] = system: Human immunodeficiency virus 2; test: Antiviral activity against Human immunodeficiency virus type 2 (ISOLATE ROD) infected human MT4 cells assessed as inhibition of virus-induced cytopathic effect after 4 days by MTT assay; format: functional, organism-based; conditions: Human immunodeficiency virus 2, ISOLATE ROD, MT4, 96 h
[15] = Cytotoxicity against Homo sapiens (human) MT4 cells after 4 days by MTT assay; format: cell-based

SMILES | -logMIC [1] | -logMIC [2] | -logMIC [3] | EC50 [4] [µg/mL] | EC50 [5] [µg/mL] | logP [6] | CC50 [7] [µg/mL] | -logMIC [8] | EC50 [9] [µg/mL] | -logMIC [10] | EC50 [11] [µg/mL] | MCC [12] [µg/mL] | EC50 [13] [µg/mL] | EC50 [14] [µg/mL] | CC50 at 96 h [15] [µg/mL]
O=C(COc1cccc2ccccc12)N/N=C/c1ccccc1O | 1.11 | 1.71 | 1.11 | > 0.8 | > 5.19 | 3.73 | 3.57 (≈ 11.1 µM) | 1.41 | > 0.8 | 1.41 | > 4 | 20 | > 4 | > 5.19 | 5.19 (≈ 16.2 µM)
O=C(COc1cccc2ccccc12)N/N=C/c1cccc(O)c1 | 1.41 | 1.71 | 1.11 | 16.2 (≈ 50.6 µM) | > 32.6 | 3.73 | 62.7 (≈ 196 µM) | 1.41 | 9.2 (≈ 28.7 µM) | 1.41 | > 20 | 100 | > 20 | > 32.6 | 32.6 (≈ 102 µM)
O=C(COc1cccc2ccccc12)N/N=C/c1ccc(O)cc1 | 1.11 | 1.71 | 1.11 | 10.5 (≈ 32.8 µM) | > 26.5 | 3.73 | 60.6 (≈ 189 µM) | 1.41 | 9.6 (≈ 30 µM) | 1.71 | > 4 | 20 | > 4 | > 26.5 | 26.5 (≈ 82.7 µM)
COc1ccc(/C=N/NC(=O)COc2cccc3ccccc23)cc1 | 0.82 | 0.82 | 0.82 | > 4 | > 76.9 | 3.77 | 100 (≈ 299 µM) | 0.82 | > 4 | 0.82 | > 4 | 20 | > 4 | > 76.9 | 76.9 (≈ 230 µM)
COc1ccc(OC)c(/C=N/NC(=O)COc2cccc3ccccc23)c1 | 1.46 | 1.16 | 1.16 | > 20 | > 19.2 | 3.51 | 56.9 (≈ 156 µM) | 1.46 | > 4 | 1.46 | > 4 | ≥ 20 | > 20 | > 19.2 | 19.2 (≈ 52.8 µM)
COc1ccc(/C=N/NC(=O)COc2cccc3ccccc23)cc1OC | 1.46 | 1.46 | 1.16 | > 20 | > 14.6 | 3.51 | 52.6 (≈ 144 µM) | 1.46 | > 4 | 1.46 | > 4 | ≥ 20 | > 20 | > 14.6 | 14.7 (≈ 40.2 µM)
COc1cc(/C=N/NC(=O)COc2cccc3ccccc23)cc(OC)c1OC | 1.5 | 1.8 | 1.5 | 17.4 (≈ 44.1 µM) | > 13.4 | 3.26 | 47.9 (≈ 121 µM) | 1.5 | 12.5 (≈ 31.7 µM) | 1.5 | > 4 | ≥ 20 | > 20 | > 13.4 | 13.4 (≈ 34 µM)
COc1ccc(/C=N/NC(=O)COc2cccc3ccccc23)cc1O | 1.15 | 1.15 | 1.45 | 20 (≈ 57.1 µM) | > 7.05 | 3.48 | 27.7 (≈ 79.1 µM) | 1.45 | 13.8 (≈ 39.4 µM) | 1.15 | > 20 | 100 | > 20 | > 7.05 | 7.05 (≈ 20.1 µM)
O=C(COc1cccc2ccccc12)N/N=C/c1ccc([N+](=O)[O-])cc1 | 0.54 | 0.84 | 1.14 | > 4 | > 87.8 | 3.97 | 14.2 (≈ 40.6 µM) | 0.84 | > 4 | 1.45 | > 4 | 20 | > 4 | > 87.8 | 87.8 (≈ 251 µM)
